Test results from a melting point compilation (Tetko et al.; mined from patent text by program, amines drawn as free bases though some values may be those of a salt).

Row | melting point [°C] | SMILES
1 | 148 to 150 | CC(C)CC(NC(=O)Cc1ccc(NC(=O)Nc2c(Cl)cccc2Cl)cc1)c1ncc(CCC(=O)O)s1 (configuration not stated)
2 | 112 to 114 | CCCCCCCCCCCCCCCCCCC1CNc2cc(C(=O)O)ccc21 (racemic)
3 | 210 | CC(C)(C)OC(=O)Nc1cc(N2CCOC2=O)c(-c2ccc(F)cc2)cc1N
4 | 105 to 109 | Cc1ccc(-c2nc(-c3ccc(C)cc3C)nc(-c3ccc(OCC(=O)OC4CC(C)(C)N(OC5CCCCC5)C(C)(C)C4)cc3O)n2)c(C)c1
5 | 110 | CCCCOc1cccc(Cn2[nH]c(N)cc2=O)c1
6 | 79.7 to 82.5 | O=C(CCCC(=O)C(F)(F)F)c1ccc(-c2cccc3ccccc23)cc1
7 | 158 to 160 | C=C(n1c(=O)n(CCCl)c2ccccc21)C(F)(F)F
8 | 40 to 41.5 | CCOC(CBr)(OCC)C(=O)CBr
9 | 84 to 85 | CON1CCCNC1=C[N+](=O)[O-]
10 | 185 to 186 | CSc1ccc(-c2coc3ccc(-c4nnc(C)o4)cc23)cc1C
11 | 171 to 173 | COc1ccc(-c2nnc(C(Cl)(Cl)Cl)o2)cc1OC
12 | 233 to 234 | CCOc1ccc(-c2nc(-c3cc(C(=O)O)c(O)cc3O)cs2)cc1OCC
13 | 157 to 161 | COc1nc2cc(SCCCc3cc4c(cc3O)CC(CCc3ccccc3)O4)ccc2cc1C(=O)O (configuration not stated)
14 | 261 to 263 | CCOC(=O)Nc1nc(-c2ccccc2)c(-c2nc3ccccc3c(=O)n2-c2cccc(C)c2)s1
15 | 147 to 152 | CC(=O)NNc1nc(C(F)(F)F)nc(-c2ccc(C)cc2)c1-c1ccccc1
16 | 160 to 161 | COc1cc2scc(C(=O)Nc3cccnc3)c2cc1Br
17 | 196 to 197 | Cc1cc(Nc2ccnc(Nc3ccc(S(=O)(=O)N(C)C4CCN(Cc5cncs5)CC4)cc3)n2)ccc1F
18 | 182 to 185 | CCOC(=O)C1(n2cc(Cl)cc2C(=O)C(Cl)(Cl)Cl)CC(=O)NC1=O (configuration not stated)
19 | 228 to 230 | C=C(Br)c1cc(O)cc2nc(-c3ccc(O)cc3)oc12
20 | 144 to 146 | COC1(c2ccc(OC(C)=O)cc2)Sc2ccccc2N(C)C1=O (configuration not stated)
21 | 154 to 155 | CC(C)Oc1c(C(N)=O)oc2ccc(Cl)cc12
22 | 144 to 148 | O=C(O)CCCCc1cc2cc(Cl)ccc2n1S(=O)(=O)c1ccccc1
23 | 183 | COc1ccc(-c2nc(Sc3ccccc3NC(C)=O)[nH]c2-c2ccc(OC)cc2)cc1

Row | melting point [°C] | SMILES
24 | 199 to 202 | COc1ccc2[nH]c(SCc3nccc(N4CCCC4)n3)nc2c1
25 | 129 to 132 | COc1ccc(OC)c2c1[C@H](C=O)c1ccccc1[C@@H]2C=O
26 | 143 | Cc1nc2c(N)nc3ccccc3c2n1CCOCC#Cc1ccccc1
27 | 142 to 144 | C#CCN(C(=O)c1cn(C)cc1C(F)(F)F)c1cccc2c1C(C)CC2(C)C (configuration not stated)
28 | 202 to 204 | CC(=O)N(C)c1ccc(-c2ccnc3c(C(=O)c4ccco4)cnn23)cc1
29 | 104 | OC(COc1cccc2c1SCCC2)CN1CCC(c2ccccc2)CC1 (configuration not stated)
30 | > 370 | Nc1ncnc2[nH]c(=S)sc12
31 | 213 to 216 | CCCCCCCCCCCCCCCCCCOc1cc(C(N)=O)cc(N(CC(=O)O)CC(=O)O)c1
32 | 88 to 89 | CCOc1c(OC)cc(N)cc1OC
33 | 170 to 172 | CCC(=O)Oc1ccc2c(c1)CCC(CN1CCC(O)(c3ccccc3)CC1)C2=O (configuration not stated)
34 | 121 to 123 | Cc1occc1C(=O)Nc1ccc(Cl)c(C=NN2CCOCC2)c1
35 | 95 to 97 | O=[N+]([O-])c1cc(C(F)(F)F)cc2nc(C(F)(F)F)[nH]c12
36 | 129 to 131 | CC(O)C#Cc1cc(Cl)cc2nc(-c3ccccc3Cl)oc12 (configuration not stated)
37 | 102 to 105 | CC(C)C(O)(C#Cc1ccsc1)c1cncnc1 (configuration not stated)
38 | 219 to 221 | O=S(=O)(c1ccc(Cl)cc1)C(c1cc(F)ccc1F)c1cc(N2CCCS2(=O)=O)ncc1Cl (configuration not stated)
39 | 145 to 147 | Clc1ccc2c(c1)Cn1cccc1C(C1CCN(CCc3ccccc3)CC1)O2 (configuration not stated)
40 | 115 to 116 | O=C(NCC1CNc2ccccc2C1)OCc1ccccc1 (configuration not stated)
41 | 133 to 135 | COC(=O)N1CCC(C(C#N)(c2ccccc2)c2ccccc2)C1 (configuration not stated)
42 | 212 | CC(C)(CO)NS(=O)(=O)c1cccc(NC(=O)c2cnn3c(C(F)(F)F)cc(-c4ccc(OC(F)(F)F)cc4)nc23)c1
43 | 223 to 225 | O=C1NC(=O)C(c2ccc(Cl)c(Cl)c2)N1 (configuration not stated)
44 | 241 to 243 | NS(=O)(=O)c1ccc(-c2[nH]c3ccccc3c2-c2ccc(O)cc2)cc1
45 | 270 to 272 | CCC(=O)Nc1ccc(-c2c[nH]c(=O)cn2)cc1
46 | 220 to 222 | CC(C)(NS(=O)(=O)c1ccc2c(Cl)cnc(Cl)c2c1)C(N)=O

Continued, compound first:

Row | SMILES | melting point [°C]
47 | CC(=CC(=O)Nc1ccccc1)Oc1ccccc1 | 145
48 | Cc1cccc(NC(=O)NC2N=C(CC(C)C)c3cccc(C)c3N(CC(=O)N3CCCCCCC3)C2=O)c1 (configuration not stated) | 132 to 133
49 | Cc1ccc(C(=O)NC(NC(=S)Nc2cccnc2)C(C)(C)C)cc1 (configuration not stated) | 168 to 169
50 | COC(=O)c1ccc(CCc2cc3cc(C#N)ccc3o2)cc1 | 114 to 115
51 | COC(=O)c1cc2c(nc1C)C(CBr)CCCC2 (configuration not stated) | 66 to 67
52 | O=C1C=C[C@H]2N1CCN1C(=O)C[C@H]3CCCC[C@@]321 (relative stereo) | 159 to 162
53 | Cc1ccc(C(=S)NCCCCCCCNC(=S)c2ccc(C)cc2)cc1 | 181 to 182
54 | COc1ccc(CCNC(=O)C(F)(F)F)cc1NC(C)=O | 105 to 106
55 | COC(C)(C(=S)N(C)C)c1ccccn1 (configuration not stated) | 67.8 to 70
56 | CC(C)C(NC(=O)OC(C)(C)C)C(=O)OCC1OC(n2cc(C=CBr)c(=O)[nH]c2=O)CC1Cl (configuration not stated) | 75 to 76
57 | Cc1ccc(C)c2c1CCC2=NNC(N)=NC(c1ccccc1)c1ccccc1 | 271 to 273
58 | CCc1ccc(CC)n1Nc1ccc(N2CCOCC2)nn1 | 186 to 189
59 | CN(C(=O)CCc1ccccc1)c1ccc(C(=O)NN=C2C(=O)Nc3ccc(I)cc32)cc1 | 239
60 | COC(=O)c1cc(CCc2cc(OC)ccc2OC)ccc1N | 50 to 55
61 | CCC(C)Nc1nc2ncnn2c2c1cnc1c2cnn1CC (configuration not stated) | 228 to 230
62 | O=C(O)C(Cc1ccccc1)Oc1ccc(-c2ccc(-c3c(Cc4ccccc4)oc4ccccc34)cc2)cc1Br (configuration not stated) | 80 to 82
63 | CCOC(=O)CC(=O)c1c(F)c(F)c(N2CCC(NC(C)=O)C2)c(F)c1F (configuration not stated) | 90 to 92
64 | CCOC(=O)c1cn(CC)c2nc(C=O)c(OCC)cc2c1=O | 169 to 170
65 | Clc1ccc(C2Cc3cnc4[nH]ncc4c3-c3ccccc32)cc1Cl (configuration not stated) | 76 to 78
66 | Cc1ccc(CCN2C(=O)COc3ccc(C=C4SC(=S)NC4=O)cc32)cc1 | 267 to 269
67 | Cc1nc2cc(Cn3ccnc3)ccc2n1Cc1cccnc1 | 174
68 | CN(Cc1cccc2c1CN(C1CCC(=O)NC1=O)C2=O)C(=O)Nc1ccc2ccccc2c1 (configuration not stated) | 216 to 218
69 | CS(=O)(=O)OCCC1(CCOS(C)(=O)=O)c2ccccc2Oc2ccccc21 | 121 to 122
70 | CNCc1ccc(C2=NCCN2C(=O)OC(C)(C)C)cc1 | 65
71 | OCc1cc(-c2ccc(C(F)(F)F)cc2)on1 | 111 to 113
72 | CC(C)(C)OC(=O)NC(C)(C)c1ccc(-c2ccc3nn(C4CCCCO4)cc3c2-c2cc[nH]n2)cc1 (configuration not stated) | 99 to 105

Row | SMILES | melting point [°C]
73 | Nc1c(F)c(F)c(OC(F)F)c2c1c(=O)c(C(=O)O)cn2C1CC1 | 284 to 286
74 | CC(C)[C@H]1c2ccc(F)cc2CC[C@]1(O)CC(=O)N(C)CCCc1nc2ccccc2[nH]1 | 132 to 138
75 | C/C(=C\c1ccc(O)cc1)c1ccc2c(c1)C(C)(C)CCC2(C)C | 138 to 140
76 | CCC(CC)(CC(=O)Nc1cccc(OCc2ccc3ccc(C(C)=O)cc3n2)c1)C(=O)O | 164
77 | CC1(C)Nc2cc(Cl)ccc2NC1=O | 166 to 170
78 | CCCCCCCCCC(CCC)CC(C)CC(O)c1cc(O)ccc1O (configuration not stated) | 123
79 | Nc1ccc2c(c1)CC(=O)c1ccccc1O2 | 116 to 117
80 | CCOC(=O)c1ccc(NC(=O)C=C(C)c2ccc(Cl)c(Cl)c2)cc1 | 149 to 150
81 | [N-]=[N+]=NCc1cc(C(F)(F)F)cc(C(F)(F)F)c1 | 30 to 32
82 | O=C(NCCOc1ccc(CC(Oc2ccccc2)C(=O)O)cc1Cl)c1ccc(-c2ccccn2)cc1 (configuration not stated) | 59 to 61
83 | CC(=O)OCC(=O)Nc1nc(CN2CCC(c3c[nH]c4ccccc34)CC2)cs1 | 140 to 144
84 | CCOC(=O)CCCCOc1ccc(N2CCN(c3ccncc3)CC2)cc1 | 79 to 82
85 | CC(C)(C)c1cc(CCc2ccccc2NC(=O)NCCCc2cccs2)cc(C(C)(C)C)c1O | 150
86 | Cc1cccc(OC(C)(C)C(=O)NCCc2ccc(OC(C)(C)C(=O)O)cc2)c1 | 85 to 88
87 | CC(C(=O)c1ccc(F)cc1F)n1cnc(-c2ccc(OCc3ccccc3)cc2)n1 (configuration not stated) | 80 to 97
88 | COC(=O)CCCc1cc2nc(Cl)ccc2n1S(=O)(=O)c1ccc(OC)cc1Cl | 116 to 118
89 | Cc1cc2c(s1)S(=O)CCc1cc(=O)n(-c3ccc(Cl)cc3)nc1-2 (configuration not stated) | 174 to 175
90 | O=C1Nc2nnccc2C(=O)C1c1c(F)cc(F)cc1F (configuration not stated) | > 330
91 | CCN(C(=O)c1ccc(C(=O)c2cnc3ccccn23)cc1)c1ccccc1 | 141 to 145
92 | Clc1ccc(-c2cc(C3CCN(Cc4ccc(Cl)c(Cl)c4)CC3)n[nH]2)cc1 | 171 to 174
93 | O=C(O)CCCc1ccc(NS(=O)(=O)c2ccc(Br)cc2)cn1 | 188 to 190
94 | CCOC(=O)N(C)n1cccc1C(=O)c1ccccc1 | 50 to 52
95 | COc1cccc(C(=O)NC2(C(=O)N(C)OC)CC2)c1C | 173 to 175
96 | CCN(CC)C(=O)COc1nc(-c2ccccc2)nc2ccccc12 | 113
97 | CC(C)(COc1ccccc1C1NC(C(=O)O)CS1)CO[N+](=O)[O-] (configuration not stated) | 105 to 108
